According to patent publication US10780074B2, “Compounds and uses thereof” (Sunovion Pharmaceuticals Inc., priority 2017, dated 2020):
Where a name gives a salt, the structure may show the parent alone.

Test system: behaviors of compound-treated mice
Test: Neuropharmacological Assay (SmartCube)
Assay type: in vivo
Conditions: for minimal effective dose: Mus musculus, ip, 0.25 h, dose having 50% or more total activity in SmartCube, i.p., read-out: MED (minimal effective dose); for AD: ADHD (probability that activity matches class) / AG: analgesic (probability that activity matches class) / AX: anxiolytic (probability that activity matches class) / CE: cognitive enhancer (probability that activity matches class) / DP: anti-depressant (probability that activity matches class) / MS: mood stabilizer (probability that activity matches class) / PS: anti-psychotic (probability that activity matches class) / SD: sedative hypnotic (probability that activity matches class) / UN: uncharacterized CNS activity (probability that activity matches class): i.p. 15 min before behavioral test, most efficacious dose(s) of 3 doses
Text: Neuropharmacological Assay (SmartCube™)
Neurosci. 2011 Sep. 9; 5:103 (doi: 10.3389/fnins.2011.00103) (“Roberds”). As reported in Roberds, because psychiatric diseases generally result from disorders of cell-cell communication or circuitry, intact systems are useful in detecting improvement in disease-relevant endpoints. These endpoints are typically behavioral in nature, often requiring human observation and interpretation. To facilitate testing of multiple compounds for behavioral effects relevant to psychiatric disease, PsychoGenics, Inc. (Tarrytown, N.Y., “PGI”) developed SmartCube™, an automated system in which behaviors of compound-treated mice are captured by digital video and analyzed with computer algorithms. (D. Brunner et al., Drug Discov. Today 2002, 7:S107-S112). PGI Analytical Systems uses data from SmartCube™ to compare the behavioral signature of a test compound to a database of behavioral signatures obtained using a large set of diverse reference compounds. (The composition of the database as well as validation of the method is further described in Roberds). In this way, the neuropharmacological effects of a test compound can be predicted by similarity to major classes of compounds, such as antipsychotics, anxiolytics and antidepressants.
The SmartCube™ system produces an activity signature indicating the probability that the activity of the test compound at the administered dose matches a given class of neuropharmacological agents. (See, e.g., Roberds, FIGS. 2 and 3). The test compound is simultaneously compared against multiple classes of agents; thus, a separate probability is generated for each behavioral effect measured (e.g., anxiolytic activity, analgesic activity, etc.). In the table below, these probabilities are reported for each behavioral effect measured as follows:
Provided compounds were dissolved in a mixture of Pharmasolve™ (N-methyl-2-pyrrolidone), polyethylene glycol and propylene glycol, and were injected i.p. 15 min. before the behavioral test. For each compound, injections were administered at 3 different doses. For each behavioral effect measured, results for the most efficacious dose(s) are presented. In the table below, DP: anti-depressant; AX: anxiolytic; SD: sedative hypnotic; PS: anti-psychotic; MS: mood stabilizer; AD: ADHD; CE: cognitive enhancer; AG: analgesic; UN: uncharacterized CNS activity.
The potency of many of the compounds in the table was also determined in the SmartCube™ system. Test compounds were routinely examined at dose levels of 0.3, 1, 3 10 and 30 mg per kg (mpk), although the dose range was increased or decreased if necessary to obtain a full dose response curve. A compound's minimal effective dose (MED) is a measure of the compounds potency. The MED was defined as the dose (in mpk) having 50% or more total activity in SmartCube.

| SMILES | minimal effective dose | AD: ADHD (probability that activity matches class) | AG: analgesic (probability that activity matches class) | AX: anxiolytic (probability that activity matches class) | CE: cognitive enhancer (probability that activity matches class) | DP: anti-depressant (probability that activity matches class) | MS: mood stabilizer (probability that activity matches class) | PS: anti-psychotic (probability that activity matches class) | SD: sedative hypnotic (probability that activity matches class) | UN: uncharacterized CNS activity (probability that activity matches class) |
| --- | --- | --- | --- | --- | --- | --- | --- | --- | --- | --- |
| CNC[C@@H]1OCCc2cccc(-c3cccnc3)c21 (single isomer, unassigned) [Compound 1, bis-hydrochloride] | 10 to 30 mg/kg | + (LOQ ≤ + <5%) | + (LOQ ≤ + <5%) | ++ (5% ≤ ++ <25%) | ++ (5% ≤ ++ <25%) | ++ (5% ≤ ++ <25%) | + (LOQ ≤ + <5%) | ++ (5% ≤ ++ <25%) | + (LOQ ≤ + <5%) | ++ (5% ≤ ++ <25%) |
| CNC[C@@H]1OCCc2ccc(-c3cccnc3)cc21 (single isomer, unassigned) [Compound 3, dihydrochloride] | 3 to 10 mg/kg | + (LOQ ≤ + <5%) | ++ (5% ≤ ++ <25%) | ++ (5% ≤ ++ <25%) | ++ (5% ≤ ++ <25%) | ++ (5% ≤ ++ <25%) | ++ (5% ≤ ++ <25%) | ++ (5% ≤ ++ <25%) | + (LOQ ≤ + <5%) | ++ (5% ≤ ++ <25%) |
| CNC[C@@H]1OCCc2c(-c3cccnc3)cccc21 (single isomer, unassigned) [Compound 7, bis-hydrochloride] | 10 to 30 mg/kg | ++ (5% ≤ ++ <25%) | + (LOQ ≤ + <5%) | ++ (5% ≤ ++ <25%) | + (LOQ ≤ + <5%) | +++ (25% ≤ +++ <50%) | + (LOQ ≤ + <5%) | + (LOQ ≤ + <5%) | + (LOQ ≤ + <5%) | + (LOQ ≤ + <5%) |
| CNC[C@H]1OCCc2c(-c3cccnc3)cccc21 (single isomer, unassigned) [Compound 8, bis-hydrochloride] | ≤ 3 mg/kg | ++ (5% ≤ ++ <25%) | + (LOQ ≤ + <5%) | ++ (5% ≤ ++ <25%) | + (LOQ ≤ + <5%) | ++++ (50% ≤ ++++) | + (LOQ ≤ + <5%) | + (LOQ ≤ + <5%) | + (LOQ ≤ + <5%) | + (LOQ ≤ + <5%) |
| NC[C@@H]1OCCc2cccc(-c3cccnc3)c21 (single isomer, unassigned) [Compound 9, hydrochloride] | 10 to 30 mg/kg | + (LOQ ≤ + <5%) | ++ (5% ≤ ++ <25%) | ++ (5% ≤ ++ <25%) | + (LOQ ≤ + <5%) | ++ (5% ≤ ++ <25%) | + (LOQ ≤ + <5%) | ++ (5% ≤ ++ <25%) | + (LOQ ≤ + <5%) | + (LOQ ≤ + <5%) |
| NC[C@H]1OCCc2cccc(-c3cccnc3)c21 (single isomer, unassigned) [Compound 10, hydrochloride] | 10 to 30 mg/kg | + (LOQ ≤ + <5%) | +++ (25% ≤ +++ <50%) | + (LOQ ≤ + <5%) | + (LOQ ≤ + <5%) | ++ (5% ≤ ++ <25%) | + (LOQ ≤ + <5%) | + (LOQ ≤ + <5%) | + (LOQ ≤ + <5%) | + (LOQ ≤ + <5%) |
| NC[C@@H]1OCCc2ccc(-c3cccnc3)cc21 (single isomer, unassigned) [Compound 11, hydrochloride] | 10 to 30 mg/kg | + (LOQ ≤ + <5%) | ++ (5% ≤ ++ <25%) | + (LOQ ≤ + <5%) | + (LOQ ≤ + <5%) | ++++ (50% ≤ ++++) | + (LOQ ≤ + <5%) | + (LOQ ≤ + <5%) | + (LOQ ≤ + <5%) | + (LOQ ≤ + <5%) |
| NC[C@H]1OCCc2ccc(-c3cccnc3)cc21 (single isomer, unassigned) [Compound 12, hydrochloride] | 10 to 30 mg/kg | + (LOQ ≤ + <5%) | + (LOQ ≤ + <5%) | + (LOQ ≤ + <5%) | + (LOQ ≤ + <5%) | ++++ (50% ≤ ++++) | + (LOQ ≤ + <5%) | ++ (5% ≤ ++ <25%) | ++ (5% ≤ ++ <25%) | + (LOQ ≤ + <5%) |
